{
  "source": "patent US9756864B2",
  "key": {"Sphaerotheca fuliginea": {"test_system": "Sphaerotheca fuliginea", "assay": "Sphaerotheca test (cucumbers)/preventive", "details": "preventive spray, 7 days after inoculation"}, "Venturia inaequalis": {"test_system": "Venturia inaequalis", "assay": "Venturia test (apples)/preventive", "details": "preventive spray, 10 days after inoculation"}, "Alternaria solani": {"test_system": "Alternaria solani", "assay": "Alternaria test (tomatoes)/preventive", "details": "preventive spray, 3 days after inoculation"}, "Botrytis cinerea": {"test_system": "Botrytis cinerea", "assay": "Botrytis test (beans)/preventive", "details": "Table E, 100 ppm a.i., preventive spray, lesion size 2 days after inoculation"}, "Phytophthora infestans": {"test_system": "Phytophthora infestans", "assay_type": "in vivo", "details": "Table A; 100 ppm a.i.; tomatoes, preventive spray; 3 days after inoculation"}},
  "data": [
    {"compound": "O=C(NCCc1ncc(C(F)(F)F)cc1Cl)c1ccccc1C(F)(F)F", "note": "[F70 fluopyram, fluopyram]", "values": [
      {"measurement": "Efficacy in % found (activity found)", "setting": "Sphaerotheca fuliginea; Table C2, 4 ppm a.i.", "result": 10, "unit": "%"},
      {"measurement": "Efficacy in % found (activity found)", "setting": "Venturia inaequalis; Table B1, 4 ppm a.i.", "result": 4, "unit": "%"},
      {"measurement": "Efficacy in % found (activity found)", "setting": "Alternaria solani; Table D1, 4 ppm a.i.", "result": 33, "unit": "%"}
    ]},
    {"compound": "CC(C)Oc1cccc(NC(=O)c2ccccc2C(F)(F)F)c1", "note": "[F71 flutolanil, flutolanil]", "values": [
      {"measurement": "Efficacy in % found (activity found)", "setting": "Botrytis cinerea", "result": 0, "unit": "%"},
      {"measurement": "Efficacy in % found (activity found)", "setting": "Phytophthora infestans", "result": 33, "unit": "%"},
      {"measurement": "Efficacy in % found (activity found)", "setting": "Sphaerotheca fuliginea; Table C1, 100 ppm a.i.", "result": 0, "unit": "%"},
      {"measurement": "Efficacy in % found (activity found)", "setting": "Venturia inaequalis; Table B2, 100 ppm a.i.", "result": 4, "unit": "%"},
      {"measurement": "Efficacy in % found (activity found)", "setting": "Alternaria solani; Table D2, 50 ppm a.i.", "result": 43, "unit": "%"}
    ]},
    {"compound": "Cn1cc(C(=O)Nc2ccccc2-c2cc(F)c(F)c(F)c2)c(C(F)F)n1", "note": "[F72 fluxapyroxad, fluxapyroxad]", "values": [
      {"measurement": "Efficacy in % found (activity found)", "setting": "Sphaerotheca fuliginea; Table C2, 1 ppm a.i.", "result": 29, "unit": "%"},
      {"measurement": "Efficacy in % found (activity found)", "setting": "Venturia inaequalis; Table B1, 0.5 ppm a.i.", "result": 43, "unit": "%"},
      {"measurement": "Efficacy in % found (activity found)", "setting": "Alternaria solani; Table D1, 1 ppm a.i.", "result": 47, "unit": "%"}
    ]},
    {"compound": "Cc1nn(C)c(F)c1C(=O)Nc1ccccc1C(C)CC(C)C", "note": "(stereo not shown) [F84 penflufen, penflufen]", "values": [
      {"measurement": "Efficacy in % found (activity found)", "setting": "Sphaerotheca fuliginea; Table C2, 2 ppm a.i.", "result": 0, "unit": "%"},
      {"measurement": "Efficacy in % found (activity found)", "setting": "Venturia inaequalis; Table B1, 2 ppm a.i.", "result": 0, "unit": "%"}
    ]}
  ]
}
